Patent US20180369203A1, “METHODS OF TREATING CANCER BY ADMINISTERING A MEK INHIBITOR IN COMBINATION WITH A PROTEASOME INHIBITOR” (The Jackson Laboratory, priority 2015, published 2018)
Read-outs that look alike come from different tables or passages of the source.

Experiments:
A2058 cells [1] = experiment: Ubiquitination proteomics (UbiScan, LC-MS/MS) of A2058 cells; assay type: cell-based, human; conditions: 20 nM AZD6244, 8 hrs vs DMSO
Experimental: (A) GFP and GFP-GR plasmids were co-transfected into HEK293T cells followed by treatments with 20 nM AZD6244, 20 μM U0126, or 200 nM 17-DMAG for 4 hr. (B) GFP-GR plasmids were co-transfected into HEK293T cells with HA-Ub-K48 plasmids, which encode a mutant ubiquitin that can be conjugated to protein substrates only via lysine 48. Following treatments with 20 nM AZD6244 or 200 nM 17-DMAG for 4 hr, GFP-GR proteins were precipitated and ubiquitination was detected using anti-HA antibodies. (C) Denatured firefly luciferases were incubated with lysates of A2058 cells treated with DMSO or 20 nM AZD6244 (mean±SD, n=4, ANOVA). (D) A2058 cells were treated with 20 nM AZD6244, and ubiquitinated proteins were detected in both detergent-soluble and -insoluble fractions using Lys48-specific ubiquitin antibodies. […] (G) Experimental procedures of MS-based quantitation of ubiquitinated peptides, two technical replicates per treatment. […] (Q) Endogenous RPL15 and RPL3 proteins were detected in A2058 cells treated with 20 nM AZD6244 alone or co-treated with 500 nM MG132. (R) Endogenous RPL15 and RPL3 proteins were detected in A2058 cells stably expressing LacZ or HSF1^S326D with AZD6244 treatment. […]
A2058 cells were grown in 150 mm culture dishes and treated with DMSO or 20 nM AZD6244 for 8 hrs. […] Two technical replicates were analyzed for each treatment.

A2058 cells [2] = experiment: Experimental melanoma metastasis, i.v. luciferase-expressing A2058 cells in NOD/SCID mice; assay type: in vivo; conditions: n=10 per group
Experimental: FIGS. 6A-N show combined MEK and proteasome inhibition exerts potent tumor-suppressive effects. (A) After treatments with 20 nM AZD6244, 100 nM Bortezomib, or both for 24 hr, viable cells were quantitated by CellTiter® Blue (mean±SD, n=6, ANOVA). (B and C) 1×10^6 A2058 cells were s.c. injected into NOD/SCID mice. After 7 days, mice were treated with DMSO, 5 mg/Kg AZD6244, 0.5 mg/Kg Bortezomib, or the combination via i.p. injection three times a week. Tumor volumes were measured using a caliper weekly (mean±SEM, ANOVA). Tumor growth curves were fitted to exponential growth models to derive tumor-doubling time (DT). Kaplan-Meier survival curve was plotted for each group (Log-rank test). (D) Proteins were detected by immunoblotting, 3 tumors per group. (E) Tumor lysates were used to quantitate AOs, 5 tumors per group (mean±SD, n=3, ANOVA). (F) Tumor lysates were used to seed Aβ1-42 peptides, 5 tumors per group (mean±SD, n=3, ANOVA). (G-H) Tumor sections were stained with CR, 5 tumors per group. […] Total CR fluorescence in each field was quantitated using ImageJ and normalized against total nuclei (median, n=50, ANOVA). […] Body weights were monitored weekly (mean±SD, n=10, ANOVA). […]
A2058 cells were s.c. injected into the left flanks of 9-week-old female NOD.CB17-Prkdc/J (NOD/SCID) mice (The Jackson Laboratory). […] Tumor volumes were calculated following the formula 4/3πR^3. […]

MEK1 = MEK1 (Homo sapiens, UniProt Q02750); conditions: 100 ng GST-MEK1, 400 ng His-HSF1, RT
Experimental: (§1) Co-expressed GFP proteins served as internal controls. […] See also FIG. 10.
(§2) Samples were boiled for 5 min to stop reactions.

Hsp genes = experiment: qRT-PCR of heat-shock-induced Hsp mRNA in NIH3T3 cells; assay type: cell-based, mouse; conditions: 20 μM U0126 or 20 nM AZD6244 for 3 hr, then HS and 4-hr recovery
Experimental: (A) NIH3T3 cells were treated with HS at 43° C. for 30 min, 10 μM tubastatin A for 5 hr, 40 μM VER155008 for 1 hr, 500 nM MG132 for 1 hr, 200 nM 17-DMAG for 1 hr, and 2.5 mM azetidine for 15 min (B) The dual ELK1 reporter system, comprising a serum response element (SRE)-driven secreted embryonic alkaline phosphatase (SEAP) plasmid and a CMV-driven Gaussia luciferase (GLuc) plasmid, was transfected into HEK293T cells. After 24 hr, cells were treatments as in (A) and recovered overnight before measuring reporter activities (mean±SD, n=6, ANOVA). (C and D) NIH3T3 cells were treated with 20 μM U0126 or 20 nM AZD6244 for 3 hr followed by HS and 4-hr recovery. mRNA levels were quantitated by qRT-PCR (mean±SD, n=3, Student's t-test). (E) Immediately after HS, nuclear proteins of NIH3T3 cells treated as in (C) were extracted to measure HSF1-DNA binding by an ELISA-based assay (mean±SD, n=3, ANOVA). […]
Total RNAs were extracted using RNA STAT-60 reagent (Tel-Test, Inc.), and RNAs were used for reverse transcription using a Verso cDNA Synthesis kit (Thermo Fisher Scientific). Equal amounts of cDNA were used for quantitative PCR reaction using a DyNAmo SYBR Green qPCR kit (Thermo Fisher Scientific). Signals were detected by an ABI 7500 Real-Time PCR System (Applied Biosystems). […]

HSF1 Ser326 [3] = conditions: NIH3T3; 20 μM U0126 for 3 hrs, then heat shock 43° C. 30 mins
Experimental: NIH3T3 cells were treated with 20 μM U0126 for 3 hrs followed by heat shock at 43° C. for 30 mins HSF1 Ser326 phosphorylation was detected by immunoblotting.
Whole-cell protein extracts were prepared in cold cell-lysis buffer (100 mM NaCl, 30 mM Tris-HCl pH 7.6, 1% Triton X-100, 30 mM NaF, 1 mM EDTA, 1 mM sodium orthovanadate, and Halt™ protease inhibitor cocktail from Thermo Scientific). Proteins were separated on SDS-PAGE gels and transferred to nitrocellulose membranes. Primary antibodies were applied in wash buffer overnight at 4° C. Peroxidase-conjugated secondary antibodies were applied at room temperature for 1 hr, and signals were visualized by SuperSignal West chemiluminescent substrate (Thermo Fisher Scientific), followed by exposure to films.

HSF1 [4] = experiment: Dual HSF1 reporter assay (HSE-SEAP / CMV-GLuc) in HEK293T cells; assay type: cell-based; conditions: 20 μM U0126, 20 nM AZD6244, 1 μM FR180204 or 100 nM Sch772984
Experimental: (A) NIH3T3 cells were treated with HS at 43° C. for 30 min, 10 μM tubastatin A for 5 hr, 40 μM VER155008 for 1 hr, 500 nM MG132 for 1 hr, 200 nM 17-DMAG for 1 hr, and 2.5 mM azetidine for 15 min (B) The dual ELK1 reporter system, comprising a serum response element (SRE)-driven secreted embryonic alkaline phosphatase (SEAP) plasmid and a CMV-driven Gaussia luciferase (GLuc) plasmid, was transfected into HEK293T cells. After 24 hr, cells were treatments as in (A) and recovered overnight before measuring reporter activities (mean±SD, n=6, ANOVA). (C and D) NIH3T3 cells were treated with 20 μM U0126 or 20 nM AZD6244 for 3 hr followed by HS and 4-hr recovery. mRNA levels were quantitated by qRT-PCR (mean±SD, n=3, Student's t-test). (E) Immediately after HS, nuclear proteins of NIH3T3 cells treated as in (C) were extracted to measure HSF1-DNA binding by an ELISA-based assay (mean±SD, n=3, ANOVA). (F) HEK293T cells were transfected with dual HSF1 reporter plasmids, a heat-shock element (HSE)-driven SEAP plasmid and a CMV-GLuc plasmid. […] (G) HEK293T cells were treated with different inhibitors overnight. […] After 24 hr, cells were heat shocked at 43° C. for 30 min followed by overnight recovery (mean±SD, n=3, ANOVA). […]
FIGS. 8A-H illustrate that MEK and ERK inversely regulate the PSR. […] Cell viability was measured by a Guava EasyCyte™ flow cytometer using Guava ViaCount™ reagents (mean±SD, n=5, Student's t test). […] Levels of ERK1 and ERK2 mRNAs were quantitated in HEK293T cells transfected with ERK1-targeting siRNAs by qRT-PCR (mean±SD, n=3, ANOVA). […] Levels of ERK2 and ERK1 mRNAs were quantitated in HEK293T cells transfected with ERK2-targeting siRNAs by qRT-PCR (mean±SD, n=3, ANOVA).
Plasmids were transfected with TurboFect transfection reagent (Thermo Scientific). SEAP and luciferase activities in culture supernatants were quantitated using a Ziva® Ultra SEAP Plus Detection Kit (Jaden BioScience) and a Gaussia Luciferase Glow Assay Kit (Thermo Scientific), respectively. Luminescence signals were measured by a VICTORS Multilabel plate reader (PerkinElmer).

HSF1 [5] = experiment: ELISA-based HSF1-DNA binding assay, NIH3T3 nuclear proteins; assay type: cell-based, mouse; conditions: NIH3T3, immediately after HS; 20 μM U0126 or 20 nM AZD6244 for 3 hr
Experimental: (A) NIH3T3 cells were treated with HS at 43° C. for 30 min, 10 μM tubastatin A for 5 hr, 40 μM VER155008 for 1 hr, 500 nM MG132 for 1 hr, 200 nM 17-DMAG for 1 hr, and 2.5 mM azetidine for 15 min (B) The dual ELK1 reporter system, comprising a serum response element (SRE)-driven secreted embryonic alkaline phosphatase (SEAP) plasmid and a CMV-driven Gaussia luciferase (GLuc) plasmid, was transfected into HEK293T cells. After 24 hr, cells were treatments as in (A) and recovered overnight before measuring reporter activities (mean±SD, n=6, ANOVA). (C and D) NIH3T3 cells were treated with 20 μM U0126 or 20 nM AZD6244 for 3 hr followed by HS and 4-hr recovery. mRNA levels were quantitated by qRT-PCR (mean±SD, n=3, Student's t-test). (E) Immediately after HS, nuclear proteins of NIH3T3 cells treated as in (C) were extracted to measure HSF1-DNA binding by an ELISA-based assay (mean±SD, n=3, ANOVA). (F) HEK293T cells were transfected with dual HSF1 reporter plasmids, a heat-shock element (HSE)-driven SEAP plasmid and a CMV-GLuc plasmid. […] (G) HEK293T cells were treated with different inhibitors overnight. […] After 24 hr, cells were heat shocked at 43° C. for 30 min followed by overnight recovery (mean±SD, n=3, ANOVA). (L)-(O) HEK293T cells were transfected with siRNAs for 48 hr followed by transfection with dual HSF1 reporter plasmids for 24 hr before HS (mean±SD, n=6, ANOVA). […]

HSF1 Ser326 [6] = experiment: HSF1 Ser326 phosphorylation by immunoblotting in HEK293T cells; assay type: cell-based; conditions: overnight, 20 μM U0126, 20 nM AZD6244, 1 μM FR180204 or 100 nM Sch772984
Experimental: This figure is related to FIG. 3. (A) Validation of phospho-HSF1 Ser326 antibodies. […] (B) MEK blockade impairs HSF1 Ser326 phosphorylation. […] (D-E) S326A mutation impairs HSF1 nuclear translocation. […] (F) Acute MEK depletion diminishes HSF1 proteins. […] HSF1 proteins were detected by immunoblotting. (G) ERK-mediated HSF1 Ser307 phosphorylation depends on MEK. […] Levels of phosphor-HSF1 Ser307 were measured by immunoblotting. (H) HSF1 Ser326 phosphorylation inhibits Ser307 phosphorylation.

[7] = test system: ERK complexes precipitated from HEK293T cells; experiment: In vitro kinase assay with immunoprecipitated ERK complexes; assay type: biochemical
Experimental: as §1, §2

MEK1, sequence (Q02750 whole entry): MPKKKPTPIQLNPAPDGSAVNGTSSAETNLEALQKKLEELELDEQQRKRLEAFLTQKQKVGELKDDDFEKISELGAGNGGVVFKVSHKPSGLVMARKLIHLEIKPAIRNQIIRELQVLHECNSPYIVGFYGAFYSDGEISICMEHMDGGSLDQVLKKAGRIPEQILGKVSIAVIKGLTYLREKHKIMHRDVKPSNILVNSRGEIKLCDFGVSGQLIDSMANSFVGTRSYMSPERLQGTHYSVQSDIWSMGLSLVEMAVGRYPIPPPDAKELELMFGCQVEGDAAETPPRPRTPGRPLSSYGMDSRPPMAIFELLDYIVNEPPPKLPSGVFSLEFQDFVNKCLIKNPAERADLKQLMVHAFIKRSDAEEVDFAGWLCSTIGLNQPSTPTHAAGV

| Structure (SMILES) | increase in ubiquitination of RPL3 (A2058 cells [1]) | increase in ubiquitination of TOR1AIP2 (A2058 cells [1]) | mice with luminescence detected by in vivo imaging (A2058 cells [2]) | HSF1 Ser326 phosphorylation by recombinant MEK1 (MEK1) | HS-induced transcription of Hsp genes (Hsp genes) | HSF1 Ser326 phosphorylation (HSF1 Ser326 [3]) | transcriptional activation of HSF1 (HSF1 [4]) | DNA-binding capacity of HSF1 (HSF1 [5]) | HSF1 Ser326 phosphorylation (HSF1 Ser326 [6]) | phosphorylation of recombinant ERK1 proteins by precipitated ERK complexes ([7]; 400 ng GST-ERK1) | HSF1 Ser326 phosphorylation by precipitated ERK complexes ([7]; 400 ng His-HSF1) |
| --- | --- | --- | --- | --- | --- | --- | --- | --- | --- | --- | --- |
| Cn1cnc2c(F)c(Nc3ccc(Br)cc3Cl)c(C(=O)NOCCO)cc21 [AZD6244, selumetinib] | 13.7 fold | 61.0 fold | 40% |  |  |  |  |  |  |  |  |
| N#CC(=C(/N)Sc1ccccc1N)/C(C#N)=C(\N)Sc1ccccc1N [U0126] |  |  |  | blocked | impeded | impaired | impaired | impaired | impairs | blocked | blocked |
